23 compounds from patent publication US20070185161A1, “Bicyclic substituted indole-derivative steroid hormone nuclear receptor modulators” (priority 2004, published 2007) can be followed below.

In this test the target is T1, human MR (Homo sapiens, UniProt P08235).
T1 construct: The full length human MR gene is cloned from a human kidney or human brain cDNA library; made in house; host or cells: SF9 insect cells (baculovirus)
T1 sequence (P08235 1-984): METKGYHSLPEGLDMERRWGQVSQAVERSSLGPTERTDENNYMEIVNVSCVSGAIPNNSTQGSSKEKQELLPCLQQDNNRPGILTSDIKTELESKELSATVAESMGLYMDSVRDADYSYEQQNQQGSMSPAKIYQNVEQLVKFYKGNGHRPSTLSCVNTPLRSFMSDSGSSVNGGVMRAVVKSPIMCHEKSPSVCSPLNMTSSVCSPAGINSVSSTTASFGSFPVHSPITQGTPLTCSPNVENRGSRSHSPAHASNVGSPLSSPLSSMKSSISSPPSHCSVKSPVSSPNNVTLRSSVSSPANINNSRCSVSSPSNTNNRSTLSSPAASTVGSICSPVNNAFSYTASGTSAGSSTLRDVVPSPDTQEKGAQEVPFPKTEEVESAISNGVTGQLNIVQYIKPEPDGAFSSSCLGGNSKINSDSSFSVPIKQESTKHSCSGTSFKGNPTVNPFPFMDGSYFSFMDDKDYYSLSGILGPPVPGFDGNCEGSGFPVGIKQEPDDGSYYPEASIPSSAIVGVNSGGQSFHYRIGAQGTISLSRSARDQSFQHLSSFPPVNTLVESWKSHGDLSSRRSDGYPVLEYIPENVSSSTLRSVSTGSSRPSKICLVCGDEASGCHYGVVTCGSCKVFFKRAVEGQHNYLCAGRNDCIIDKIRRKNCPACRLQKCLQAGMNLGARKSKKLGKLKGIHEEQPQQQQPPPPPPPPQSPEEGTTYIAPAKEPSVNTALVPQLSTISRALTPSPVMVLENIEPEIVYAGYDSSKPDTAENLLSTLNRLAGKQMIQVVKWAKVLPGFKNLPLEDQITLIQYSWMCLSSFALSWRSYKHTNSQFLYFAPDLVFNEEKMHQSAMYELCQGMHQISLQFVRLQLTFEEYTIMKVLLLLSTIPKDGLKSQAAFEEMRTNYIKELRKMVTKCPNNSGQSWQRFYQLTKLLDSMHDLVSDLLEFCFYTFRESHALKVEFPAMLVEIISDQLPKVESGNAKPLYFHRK
Briefly: Mineralocorticoid Receptor Binding Assay (Method 1). Particulars: [3H]-aldosterone, racemic mixture unless otherwise indicated. The method, then: The full length human MR gene is cloned from a human kidney or human brain cDNA library. Briefly, using synthetic oligonucleotide primers (Eli Lilly and Company, Indianapolis) directed to nucleotides 20-54 and 3700-3666 of the human MR, polymerase chain reaction (PCR) is performed under standard conditions using a human cDNA library. The PCR reaction is performed in a final volume of 50 μl containing about 1 μl of a 50× stock solution of polymerase; about 1 μl of a 50× stock solution of dNTP; about 5 μl of an appropriate PCR buffer; about 1 μl of each primer; about 5 μl of a H. kidney or H. brain cDNA library; and about 36 μl of water. The reaction is allowed to denature for about 30 seconds at 95 degrees Celsius, anneal for about 30 seconds at 55 degrees Celsius, and extend for about 5 minutes at 72 degrees Celsius, the sequence being repeated for a total of about 35 cycles. The desired PCR product (3.68 Kb) is confirmed by gel electrophoresis and subsequently cut from the gel and stored at about −20 degrees Celsius until extraction. To extract the cDNA product from the agarose gel, the QIAEX II Gel Extraction protocol (QIAGEN, Inc.) is employed according to the manufacturer's instructions. Following extraction, the MR cDNA is cloned into an appropriate cloning vector (Zero Blunt TOPO PCR Cloning Kit (Invitrogen, Inc.) and a pAcHLT-baculovirus transfer vector (B.D./Pharminogen), then expressed in SF9 insect cells, essentially according to manufacturer's instructions. Sf9 cells are grown at a scale where gram quantity cell pellets are obtained for subsequent use in the MR binding assay. Harvested cell pellets are lysed by repeated freeze-thaw cycles (about 4) in a suitable lysis buffer then centrifuged at about 1×10^3 G (with the supernatant being saved for future assays).
MR binding assays are performed in a final total volume of about 250 μl containing about 20-25 μg of protein and 0.5 nM of [^3H]-aldosterone plus varying concentrations of test compound or vehicle. The assay binding buffer consists of 30 mM sodium molybdate, 30 mM of TRIS-HCl, 5 mM sodium phosphate, 5 mM sodium pyrophosphate, and about 10% glycerol, pH=7.5.
Briefly, assays are prepared at RT in 96-well Falcon 3072 plates, each well containing 210 μl of binding buffer, 10 μl of [^3H]-aldosterone, 10 μl of test compound/vehicle, and 20 μl of the resuspended receptor protein extract. Incubations are carried out at 4 degrees Celsius with shaking for about 16 hours. 200 μl aliquots of each incubation are filtered onto Millipore HA 0.45 micron 96-well filter plates, pre-moistened with cold 30 mM TRIS-HCl. The filter plates are suctioned dry with vacuum and immediately washed 3× with cold 30 mM TRIS-HCl. The plates are then punched out and the amount of receptor-ligand complex is determined by liquid scintillation counting using 4 ml of Ready Protein Plus™ liquid scintillation cocktail.
IC50 values (defined as the concentration of test compound required to decrease [^3H]-aldosterone binding by 50%) are then determined. Ki values for each respective test compound can then be calculated by application of the Cheng-Prusoff equation as described in Cheng et al., Relationship Between The Inhibition Constant (Ki) and The Concentration of Inhibitor Which Causes 50% Inhibition (IC50) of an Enzymatic Reaction, Biochem. Pharmacol., 22: 3099-31088; (1973).

Bounds are passed on as bounds.

On to `CCC1(c2c[nH]c3c(NS(C)(=O)=O)cccc23)CCc2cc(F)ccc21` (racemic) [Example 1, N-[3-(1-ethyl-5-fluoro-indan-1-yl)-1H-indol-7-yl]-methanesulfonamide], for which the Ki was not above 500 nM. As to `CC1(c2c[nH]c3c(NS(C)(=O)=O)cccc23)CCc2cc(F)ccc21` (racemic) [Example 21, N-[3-(5-Fluoro-1-methyl-indan-1-yl)-1H-indol-7-yl]-methanesulfonamide], the Ki was not above 500 nM.

For the compound `CC1(c2c[nH]c3c(NS(C)(=O)=O)cccc23)CCc2cc(F)cc(F)c21` (racemic) [Example 22, N-[3-(5,7-Difluoro-1-methyl-indan-1-yl)-1H-indol-7-yl]-methanesulfonamide], the Ki is not above 500 nM. With `CCC1(c2c[nH]c3c(NS(C)(=O)=O)cccc23)CCc2cc(F)cc(F)c21` (racemic) [Example 23, N-[3-(1-Ethyl-5,7-difluoro-indan-1-yl)-1H-indol-7-yl]-methanesulfonamide], the Ki was not above 500 nM. The value for `CC1(c2c[nH]c3c(NS(C)(=O)=O)cccc23)CCCc2cc(F)ccc21` (racemic) [Example 28, N-[3-(6-Fluoro-1-methyl-1,2,3,4-tetrahydro-naphthalen-1-yl)-1H-indol-7-yl]-methanesulfonamide] was not above 500 nM; that for `CCC1(c2c[nH]c3c(NS(C)(=O)=O)cccc23)CCCc2cc(F)ccc21` (racemic) [Example 29, N-[3-(1-Ethyl-6-fluoro-1,2,3,4-tetrahydro-naphthalen-1-yl)-1H-indol-7-yl]-methanesulfonamide] was not above 500 nM; that for `CCC1(c2c[nH]c3c(NS(C)(=O)=O)cccc23)CCCc2cc(F)cc(F)c21` (racemic) [Example 31, N-[3-(1-Ethyl-6,8-difluoro-1,2,3,4-tetrahydro-naphthalen-1-yl)-1H-indol-7-yl]-methanesulfonamide] was not above 500 nM. In the case of `CC1(c2c[nH]c3c(NS(C)(=O)=O)cccc23)CCOc2cc(F)ccc21` (racemic) [Example 34, N-[3-(7-Fluoro-4-methyl-chroman-4-yl)-1H-indol-7-yl]-methanesulfonamide] it was not above 500 nM; in that of `CCC1(c2c[nH]c3c(NS(C)(=O)=O)cccc23)CCOc2cc(F)ccc21` (racemic) [Example 35, N-[3-(4-Ethyl-7-fluoro-chroman-4-yl)-1H-indol-7-yl]-methanesulfonamide], not above 500 nM. In the case of `CCC1(c2c[nH]c3c(NS(C)(=O)=O)cccc23)CCOc2cc(F)cc(F)c21` (racemic) [Example 36, N-[3-(4-Ethyl-5,7-difluoro-chroman-4-yl)-1H-indol-7-yl]-methanesulfonamide], the Ki is not above 500 nM. The value for `CS(=O)(=O)Nc1cccc2c(C3(C4CC4)CCc4cc(F)ccc43)c[nH]c12` (racemic) [Example 39, N-[3-(1-Cyclopropyl-5-fluoro-indan-1-yl)-1H-indol-7-yl]-methanesulfonamide] was not above 500 nM. Turning to `CS(=O)(=O)Nc1cccc2c(C3(CCCO)CCc4cc(F)ccc43)c[nH]c12` (racemic) [Example 40, N-{3-[5-Fluoro-1-(3-hydroxy-propyl)-indan-1-yl]-1H-indol-7-yl}-methanesulfonamide], the inhibition constant Ki was not above 500 nM. Consider `CCC1(c2c[nH]c3c(NS(C)(=O)=O)cccc23)CCc2cc(F)ccc21` (single isomer, unassigned) [Example 1A, N-[3-(1-ethyl-5-fluoro-indan-1-yl)-1H-indol-7-yl]-methanesulfonamide], for which the Ki was not above 500 nM. As for `CC1(c2c[nH]c3c(NS(C)(=O)=O)cccc23)CCc2cc(F)ccc21` (single isomer, unassigned) [Example 21A, N-[3-(5-Fluoro-1-methyl-indan-1-yl)-1H-indol-7-yl]-methanesulfonamide], the Ki is not above 500 nM. In the case of `CC1(c2c[nH]c3c(NS(C)(=O)=O)cccc23)CCc2cc(F)ccc21` (single isomer, unassigned) [Example 21B, N-[3-(5-Fluoro-1-methyl-indan-1-yl)-1H-indol-7-yl]-methanesulfonamide], the Ki is not above 500 nM. The value for `CC1(c2c[nH]c3c(NS(C)(=O)=O)cccc23)CCc2cc(F)cc(F)c21` (single isomer, unassigned) [Example 22A, N-[3-(5,7-Difluoro-1-methyl-indan-1-yl)-1H-indol-7-yl]-methanesulfonamide] was not above 500 nM; that for `CC1(c2c[nH]c3c(NS(C)(=O)=O)cccc23)CCc2cc(F)cc(F)c21` (single isomer, unassigned) [Example 22B, N-[3-(5,7-Difluoro-1-methyl-indan-1-yl)-1H-indol-7-yl]-methanesulfonamide] was not above 500 nM. Consider `CCC1(c2c[nH]c3c(NS(C)(=O)=O)cccc23)CCc2cc(F)cc(F)c21` (single isomer, unassigned) [Example 23A, N-[3-(1-Ethyl-5,7-difluoro-indan-1-yl)-1H-indol-7-yl]-methanesulfonamide], for which the Ki was not above 500 nM.

On to `CCC1(c2c[nH]c3c(NS(C)(=O)=O)cccc23)CCc2cc(F)cc(F)c21` (single isomer, unassigned) [Example 23B, N-[3-(1-Ethyl-5,7-difluoro-indan-1-yl)-1H-indol-7-yl]-methanesulfonamide], for which the Ki is not above 500 nM. In the case of `CC1(c2c[nH]c3c(NS(C)(=O)=O)cccc23)CCCc2cc(F)ccc21` (single isomer, unassigned) [Example 28A, N-[3-(6-Fluoro-1-methyl-1,2,3,4-tetrahydro-naphthalen-1-yl)-1H-indol-7-yl]-methanesulfonamide], the Ki was not above 500 nM. As to `CC1(c2c[nH]c3c(NS(C)(=O)=O)cccc23)CCCc2cc(F)ccc21` (single isomer, unassigned) [Example 28B, N-[3-(6-Fluoro-1-methyl-1,2,3,4-tetrahydro-naphthalen-1-yl)-1H-indol-7-yl]-methanesulfonamide], the Ki is not above 500 nM.

For the compound `CCC1(c2c[nH]c3c(NS(C)(=O)=O)cccc23)CCCc2cc(F)ccc21` (single isomer, unassigned) [Example 29A, N-[3-(1-Ethyl-6-fluoro-1,2,3,4-tetrahydro-naphthalen-1-yl)-1H-indol-7-yl]-methanesulfonamide], the Ki was not above 500 nM.

Take `CCC1(c2c[nH]c3c(NS(C)(=O)=O)cccc23)CCCc2cc(F)ccc21` (single isomer, unassigned) [Example 29B, N-[3-(1-Ethyl-6-fluoro-1,2,3,4-tetrahydro-naphthalen-1-yl)-1H-indol-7-yl]-methanesulfonamide]: the Ki is not above 500 nM.

Usually Ki stands for a measure of affinity in units of concentration, obtained from inhibition or displacement.
